We go through one compound from article PMC8813803 (Clinical Pharmacokinetics, 2021).

The structures appear in SMILES notation.

A short description of data set [1]: Clinical ADME study NCT03315559. The data set is classed as in vivo. The following applies: human; set from Fg 0.83 of clinical study 206764.
Data set [2] relates to liver uptake transporters. Nature of the data set: Liver uptake transporter substrate status. The data set is classed as in vitro ADME.
The conditions of data set [3]: human, cited from earlier work.
The conditions of data set [4]: in words; cited from earlier work.
For data set [5] the following is noted: in words; cited from earlier work. This is another data set of the same source.
For data set [6] the following is noted: in words; cited from earlier work. The source holds these as a separate data set.

`CC(C)N1CCN(Cc2cnc(-c3cc(-c4cccc5[nH]ccc45)cc4[nH]ncc34)o2)CC1` [nemiralisib, Nemiralisib]: the “Intestinal FPE (first-pass extraction)” value in data set [1] came out at 17%. Moreover, the “Substrate of liver uptake transporters” value in data set [2] is “not a substrate”. For the same compound, the “Fg (fraction escaping gut wall metabolism)” value in data set [3] (clinical study 206764 (NCT03315559)) was 0.83. Also, the “Volume of distribution at steady state” value in data set [3] (intravenous dosing) is reported as “approximately 10 L/kg”. Also, in data set [3] (oral dose), the “tmax (time of maximum plasma concentration)” value is on record as 6 h. Besides, the Oral bioavailability in data set [3] was 35%. Besides, in data set [4], the “Rat lung tissue binding” value is given as “high”. Also, the Permeability entry in data set [5] is reported as “high”. For the same compound, the Solubility entry in data set [6] is on record as “reasonable”.
